We go through 6 compounds from PMC7555970, “Design, Synthesis and Biological Evaluation of Biphenylglyoxamide-Based Small Molecular Antimicrobial Peptide Mimics as Antibacterial Agents” (International Journal of Molecular Sciences, 2020).

Bounds are passed on as bounds.

Experiment [1] has as its system S. aureus (SA38). As to conditions: cited from earlier work.
Experiment [2] relates to P. aeruginosa (PA01). Conditions: cited from earlier work.
Experiment [3] relates to E. coli (K12). As to conditions: cited from earlier work.
Experiment [4] has as its system S. aureus (SA38). The experiment is described as follows: Minimum inhibitory concentration (MIC) assay against S. aureus. The format is cell-based, Staphylococcus aureus. Conditions: Staphylococcus aureus. On the procedure: (§1) The antimicrobial activity of the compounds was evaluated by MIC assay using the procedure described by Clinical and Laboratory Standards Institute (CLSI). A single colony of bacteria was cultured overnight in trypticase soy broth (TSB; Oxoid, Basingstoke, UK) at 37 °C with shaking. The resulting bacterial culture was collected by centrifugation and resuspended in TSB twice. The optical density (OD) of the resulting culture was adjusted to OD660 = 0.1 in TSB (which is equivalent to 10^8 colony forming unit (CFU)/mL bacteria). It was further diluted to 10^6 CFU/mL in TSB. 100 µL of the bacterial solution was then added to wells of a 96-well plate (Costar; Sigma-Aldrich, St Louis, MO, USA) containing 100 µL serially diluted peptide mimic, with final concentration ranging from 1 to 250 µM. Wells with bacteria but no compound were used as negative control while wells with only media were set as blank. The plates were then wrapped with parafilm to prevent evaporation and incubated with shaking at 120 rpm at 37 °C for 18–24 h, and the data were recorded by measuring the OD value at 660 nm using a FLUOstar Omega (BMG Labtech, Mornington, Victoria, Australia) microplate reader. […] Each experiment was performed in triplicate and was repeated in three independent experiments.

The subject of experiment [5] is P. aeruginosa (PA01). The experiment is described as follows: Minimum inhibitory concentration (MIC) assay against P. aeruginosa. In kind it is cell-based. Conditions: Pseudomonas aeruginosa. On the procedure: as §1
The subject of experiment [6] is E. coli (K12). The experiment is described as follows: Minimum inhibitory concentration (MIC) assay against E. coli. The format is cell-based. As to conditions: Escherichia coli. Here is the method:
as §1

Experiment [7] relates to established S. aureus biofilms. The experiment can be described thus: Biofilm disruption assay (crystal violet staining), S. aureus. In kind it is cell-based, Staphylococcus aureus. Conditions: 24 h treatment. Here is the method:
(§2) Bacterial cultures (S. aureus and E. coli) were grown in Muller Hinton broth (MHB; Oxoid, Basingstoke, UK) media overnight at 37 °C with shaking at 120 rpm. Cultures were diluted (1:20) in MHB medium and 200 µL aliquots were dispensed to wells in a flat bottom 96-well plate (Costar; Sigma-Aldrich, St Louis, MO, USA). Biofilm was then grown in the 96-well plate at 37 °C overnight. After that, loosely bound cells were washed away with 1x phosphate-buffered saline (PBS) and cultures were then supplemented with different concentrations of test compounds dissolved in DMSO and incubated for a further 24 h with shaking at 120 rpm. Biofilms adhered on the plate substratum were quantified using crystal violet staining as described previously. The experiment was performed in triplicate.

The nature of experiment [8]: Tethered bilayer lipid membranes (tBLMs) assay, zwitterionic membrane. As to conditions: for changes of membrane conduction: zwitterionic membrane, higher concentrations (1–100 μM). Here is the method:
(§3) Changes in membrane conduction and capacitance were measured using tethered bilayer lipid membranes (tBLMs) in association with AC electrical impedance spectroscopy techniques. Sparsely tethered tBLMs were prepared using a zwitterionic 1-palmitoyl-2-oleoyl-glycero-3-phosphocholine (POPC) (Avanti Lipids, USA) or a mixture of 30% palmitoyl-oleoyl-phosphatidylglycerol (POPG) (Avanti Lipids, USA) lipids with 70% POPC in order to create a negatively charged tBLM [66, 67]. To do this, gold-patterned polycarbonate slides were coated with tethered benzyl-disulfide (tetra-ethyleneglycol) n = 2 C20-phytanyl tethers:benzyl-disulfide-tetra-ethyleneglycol-OH spacers in the ratio of 1:10 (SDx Tethered Membranes Pty Ltd., Australia). A 3 mM solution of a mobile lipid phase POPC, or a 3 mM solution of mobile phase POPC/POPG (70:30), (Avanti Lipids, USA) in 100% ethanol was then incubated with the tethering chemistries. Lipids were left to incubate with the tethering chemistries for 2 min before being washed with 3 × […] of phosphate-buffered saline (PBS). Prior to the addition of the compounds, membrane stability was confirmed by 5 × 100 µL washes of the PBS vehicle. AC electrical impedance spectrometry (EIS) was then used to monitor any changes in membrane impedances as a result of adding the test compounds in increasing concentrations.
(§4) For EIS measures, a 50 mV peak-to-peak AC excitation from 0.1 to 2000 Hz with four steps per decade were recorded using a TethaPod™ operated with TethaQuick™ software (SDx Tethered Membranes Pty Ltd., Australia). The data were fitted to an equivalent circuit consisting of a Constant Phase Element (CPE), to represent the imperfect capacitance of the gold tethering electrode, in series with a Resistor/Capacitor network to represent the lipid bilayer membrane. Fitting of the phase and impedance data to the equivalent circuit was completed with a proprietary adaptation of a Lev Mar fitting routine. To account for variations in basal membrane conditions, data are normalised to a baseline conduction and capacitance values directly before the addition of each compound.

Experiment [9] is described as follows: Tethered bilayer lipid membranes (tBLMs) assay, negatively charged membrane. Conditions: for changes of membrane conduction: negatively charged membranes, higher concentrations (1–100 μM), compared to zwitterionic. On the procedure:
as §3, §4

Experiment [10] concerns MRC-5 normal human lung fibroblasts. The experiment can be described thus: MTT toxicity assay. In kind it is cell-based. As to conditions: Homo sapiens, MRC5, 72 h, 72 h drug incubation, read-out: IC50 against MRC-5 normal human lung fibroblasts. On the procedure:
The toxicity of the compounds was measured using an MTT (3-(4,5-dimethylthiazol-2-yl)-2,5-diphenyltetrazolium bromide) (Sigma Aldrich, St Louis, MO, USA) colorimetric assay against normal human lung fibroblasts MRC-5 cells. The cells were cultured in minimal essential medium (MEM; Sigma Aldrich, St Louis, MO, USA) containing 10% foetal bovine serum (FBS). The cells were maintained at 37 °C in 5% CO2 as an adherent monolayer and was passaged upon reaching confluence by standard cell culture techniques. MRC-5 cells were seeded at 5000 cells/well in 96-well plates to ensure full confluence (quiescence) and left overnight to adhere to the plate wells. The adherent cells were treated with 1–500 µM of compounds by dissolving in DMSO and serially diluting with media. The final concentration of DMSO was 0.5% (v/v). After 72 h drug incubation, […] stock MTT solution (5 mg/mL) was added and the cells were incubated for another 3.5–4 h. MTT solution-containing media was carefully aspirated without displacing the purple crystals from the bottom and […] acid-isopropanol was added to all wells and mixed slowly by shaking with an orbital shaker to dissolve the dark blue crystals. The metabolic activity was detected by spectrophotometric analysis by assessing the read absorbance (590/620 nm) on an EnSight plate reader (PerkinElmer, Waltham, MA, USA) and cell viability was expressed as a percentage of untreated control cells. The determination of IC50 values was performed using GraphPad Prism 6 (GraphPad, San Diego, CA, USA). Each experiment was performed in triplicate and was repeated in three independent experiments.
Background: Formazan colour is commonly taken as a measure of viable cells.

The subject of experiment [11] is preformed E. coli biofilm. The experiment is described as follows: Biofilm disruption assay (crystal violet staining), E. coli. The format is cell-based, Escherichia coli. Conditions: 4× MIC (64 μM), 24 h treatment. On the procedure:
as §2

Experiment [12] concerns cytoplasmic membrane of S. aureus. The experiment can be described thus: Cytoplasmic membrane permeability (diSC3-5 dye release) assay. The format is cell-based, Staphylococcus aureus. As to conditions: 1× and 2× MIC. On the procedure:
Bacterial cytoplasmic membrane permeability was determined using membrane potential-sensitive dye diSC3–5 (3,3′-dipropylthiadicarbocyanine iodide), which penetrates inside bacterial cells depending on the membrane potential gradient of the cytoplasmic membrane. The procedure of this assay follows the method previously described by Wu et al. with slight modifications. Bacteria were grown in MHB to mid-log phase by incubating with shaking at 37 °C for […]. Following incubation, bacteria were washed with 5 mM HEPES containing 20 mM glucose at pH 7.2 and resuspended in the same buffer to an OD600 0.05–0.06 (yielding a final concentration of 10^7 CFU/mL). The dye diSC3–5 was added at 4 μM to the bacterial suspension. The suspensions were incubated at room temperature for 1 h in darkness for maximum dye take-up by the bacterial cells. 100 mM KCl was then added to balance the K^+ outside and inside the bacterial cell. 100 μL of bacterial suspension was added in a 96-well microtiter plate and with equal volume of antimicrobial compounds. DMSO (10%) was set as a positive control while dye and only bacterial cells were set as negative control. Fluorescence due to release of dye was measured with a luminescence spectrophotometer at 3 min intervals at an excitation wavelength of 621 nm and an emission wavelength of 670 nm.

In experiment [13] the test system is S. aureus. The experiment can be described thus: Time-kill kinetic / cell viability count assay. The format is cell-based, Staphylococcus aureus. As to conditions: 1× and 2× MIC. On the procedure:
The number of viable cells was confirmed by serially diluting aliquots of bacteria in D/E neutralizing broth (Remel, Lenexa, KS, USA) and plating onto Tryptic Soy Agar (Oxoid, Basingstoke, UK) containing phosphatidylcholine (0.7 g/L) and Tween 80 (5 mL/L). The plates were incubated at 37 °C overnight and numbers of live bacteria were enumerated and expressed as CFU/mL. The experiment was performed in triplicate.

Where [14] appears, read: no antibacterial activity at the highest concentration tested (250 μM) ref 43.
[15] abbreviates: any tested concentration (1×, 2× and 4× MIC).
Setting [16] is: previously reported values ref 51.

In the case of `CCCCCCCCS(=O)(=O)Nc1ccccc1C(=O)C(=O)NCCC[N+](C)(C)C` [Compound 4a], the “MIC against S. aureus” value in experiment [1] (previously synthesised N-sulfonylphenylglyoxamide iodide salts ref 43) is 250 µM. Also, in experiment [2] (setting [14]), the “MIC against P. aeruginosa” value was over 250 µM. Moreover, the “MIC against E. coli” value in experiment [3] (setting [14]) was over 250 µM.
One may read the MIC as the lowest concentration that inhibits growth of the organism. A word on the IC50: it is the concentration needed to halve the response being measured. Take `CCCCCCCCS(=O)(=O)Nc1ccc(-c2ccc3ccccc3c2)cc1C(=O)C(=O)NCCC[N+](C)(C)C.[I-]` [Compound 15d, N,N,N-Trimethyl-3-(2-(5-(naphthalen-2-yl)-2-(octylsulfonamido)phenyl)-2-oxoacetamido)propan-1-aminium iodide]: the MIC in experiment [4] was determined as 8 µM; in experiment [5], 250 µM; in experiment [6] it was 63 µM. For the same compound, the “disruption of preformed S. aureus biofilms” value in experiment [7] (setting [15]) is “failed to disrupt any”. In experiment [8] (zwitterionic POPC tBLMs, concentrations as low as 100 nM), the “shift in membrane conductance” value was determined as 2.5 ×. The “changes of membrane conduction” value in experiment [8] was “more pronounced”; in experiment [9] it was “lower”. Further, the membrane capacitance result is “large increase” in experiment [8] (zwitterionic tBLMs, saturating concentrations) and “large increase” in experiment [9] (negatively charged tBLMs, saturating concentrations). Besides, the “changes in membrane conductance” value in experiment [9] (30% POPG membranes, concentrations <1 μM) was “notably absent”. Besides, in experiment [10], the IC50 came to 112 µM.
For the compound `CCCCCCCCS(=O)(=O)Nc1ccc(-c2ccccc2)cc1C(=O)C(=O)NCCCNC(=N)N.Cl` [Compound 22a, N-(3-Guanidinopropyl)-2-(4-(octylsulfonamido)-[1,1’-biphenyl]-3-yl)-2-oxoacetamide hydrochloride], the MIC in [4] is 8 µM; in experiment [5] it was 63 µM; in experiment [6], 63 µM. The “disruption of preformed S. aureus biofilms” value in experiment [7] (setting [15]) is “failed to disrupt any”. For the same compound, the results for the “changes of membrane conduction” value in experiment [8] and in experiment [9] were “more pronounced” and “lower”, respectively. For the same compound, in experiment [10], the IC50 came to 75.5 µM.
As to `CCCCCCCCS(=O)(=O)Nc1ccc(-c2ccc(F)cc2)cc1C(=O)C(=O)NCCCNC(=N)N.Cl` [Compound 22b, 2-(4’-Fluoro-4-(octylsulfonamido)-[1,1’-biphenyl]-3-yl)-N-(3-guanidinopropyl)-2-oxoacetamide hydrochloride], the MIC in experiment [4] turned out to be 8 µM; in experiment [5], 63 µM; in [6], 16 µM. In [7] (4× MIC (32 μM)), the “disruption of preformed S. aureus biofilms” value is given as 39%. Further, in [11], the “disruption of preformed E. coli biofilm” value is reported as “insignificant amount”. Moreover, the “increase in diSC3-5 fluorescence intensity (cytoplasmic membrane disruption)” value in [12] is listed as “modest”. In addition, the “reduction in bacterial numbers” value in [13] is “less than 1 log”. Besides, the IC50 in experiment [10] turned out to be 76 µM.
`CCCCCCCCS(=O)(=O)Nc1ccc(-c2ccc3ccccc3c2)cc1C(=O)C(=O)NCCCNC(=N)N.Cl` [Compound 22d, N-(3-Guanidinopropyl)-2-(5-(naphthalen-2-yl)-2-(octylsulfonamido)phenyl)-2-oxoacetamide hydrochloride]: the MIC in [4] was 8 µM; in experiment [5], over 250 µM; in experiment [6], over 250 µM. Moreover, in [7] (4× MIC (32 μM)), the “disruption of preformed S. aureus biofilms” value is given as 50%. The “increase in diSC3-5 fluorescence intensity (cytoplasmic membrane disruption)” value in [12] is given as “modest”. In [13], the “reduction in bacterial numbers” value is on record as “less than 1 log”. In addition, the IC50 in experiment [10] stood at 49.5 µM.
Turning to pexiganan [pexiganan (MSI-78)], the “MIC S. aureus” value in experiment [1] (setting [16]) was 3.2 to 6.5 µM. For the same compound, the “MIC P. aeruginosa” value in experiment [2] (setting [16]) was 3.2 to 6.5 µM. For the same compound, in [3] (setting [16]), the “MIC E. coli” value is 3.2 to 6.5 µM.
